Results from patent US4588720A, “Imidazo[1,2-a]pyrimidines” (Roussel Uclaf, priority 1982, dated 1986).

Assays:
benzodiazepine receptors = experiment: Affinity for benzodiazepine receptors ([3H] flunitrazepam radioreceptor binding); conditions: inhibition of specific binding of 0.6 nM [^3 H] flunitrazepam, rat forebrain membrane preparations; read-out: Receptor Binding (IC50 nM)
Protocol: A. Affinity for benzodiazepine receptors
The affinity of the compounds for benzodiazepine receptors was assessed using the radioligand [^3 H] flunitrazepam and modifications of the original radioreceptor binding method of Squares and Braestrup (Nature, Vol. 266 (1977) p. 732). The values given in Table VI are nanomolar concentrations of test compound which inhibited the specific binding of 0.6 nM[^3 H] flunitrazepam to rat forebrain membrain preparations by 50% (IC50 nM).

[1] = Anxiolytic activity, Geller conflict method (Geller and Seifter); assay type: in vivo; conditions: po; modified Geller and Seifter conflict method; read-out: Geller Conflict (MED mg/kg po), minimum effective dose at which there was an observed increase in shocks above control
Protocol: Screening for anxiolytic activity was carried out by modifications of the conflict method of Geller and Seifter (Psychopharmacologia, (1960), Volume I, p. 482). The values given in Table VI are the minimum effective doses at which there was an observed increase in shocks above control (MED me/kg po).

Row | SMILES | IC50 (benzodiazepine receptors) | minimal effective dose [1]
1 | COc1nc2nc(C(=O)c3ccccc3)cn2c2c1CCCC2 [Example 1, (5-methoxy-6,7,8.9-tetrahydroimidazo[1,2-a]quinazolin-2-yl)phenylmethanone] | 61 nM | 5 mg/kg
2 | COc1cc(C)n2cc(C(=O)c3ccccc3)nc2n1 [Example 3, (7-Methoxy-5-methylimidazol[1,2-a]pyrimidin-2-yl)-phenyl methanone] | 800 nM | 5 mg/kg
3 | COc1nc2nc(C(=O)c3ccccc3)cn2c2c1CCC2 [Example 4, (5-Methoxycyclopenta[e]imidazol[1,2-a]pyrimidin-2-yl)-phenylmethanone] | 200 nM | 20 mg/kg
4 | CSc1nc2nc(C(=O)c3ccccc3)cn2c2c1CCC2 [Example 6, [5-(Methylthio)cyclopenta[e]imidazo[1,2-a]pyrimidin-2-yl]phenylmethanone] | 35 nM | 2 mg/kg
5 | COc1nc2nc(C(=O)c3ccccc3)cn2c(C)c1C [Example 7, (7-Methoxy-5,6-dimethylimidazo[1,2-a]pyrimidin-2-yl)phenylmethanone] | 235 nM | 50 mg/kg
6 | COc1nc2nc(C(=O)c3ccccc3)cn2c2c1CCCCC2 [Example 8] | 125 nM | 10 mg/kg
7 | COc1nc2nc(C(=O)c3ccccc3)cn2c(C)c1Cc1ccccc1 [Example 9, (6-Benzyl-7-methoxy-5-methylimidazo[1,2-a]pyrimidin-2-yl)phenylmethanone] | 45 nM | 50 mg/kg
8 | CCOc1nc2nc(C(=O)c3ccccc3)cn2c2c1CCCCC2 [Example 10] | 4000 nM | 5 mg/kg
9 | COc1nc2nc(C(=O)c3ccccc3)cn2c(C)c1C(C)C [Example 11, (7-Methoxy-5-methyl-6-(1-methylethyl)imidazo[1,2-a]pyrimidin-2-yl)phenylmethanone] | 37 nM | 2 mg/kg
10 | CSc1nc2nc(C(=O)c3ccccc3)cn2c2c1CCCC2 [Example 12, [5-(Methylthio)-6,7,8,9-tetrahydroimidazo[1,2-a]quinazolin-2-yl]phenylmethanone] | 8.5 nM | 10 mg/kg
11 | CCSc1nc2nc(C(=O)c3ccccc3)cn2c2c1CCC2 [Example 13, [5-(Ethylthio)cyclopenta[e]imidazo[1,2-a]pyrimidin-2-yl]phenylmethanone] | 1850 nM | 50 mg/kg
12 | CCCc1cc(OC)nc2nc(C(=O)c3ccccc3)cn12 [Example 14, (7-Methoxy-5-propylimidazo[1,2-a]pyrimidin-2-yl)phenylmethanone] | 535 nM | 1 mg/kg
13 | CCc1cc(OC)nc2nc(C(=O)c3ccccc3)cn12 [Example 15, (5-Ethyl-7-methoxyimidazo[1,2-a]pyrimidin-2-yl)phenylmethanone] | 295 nM | 2 mg/kg
14 | CCc1c(OC)nc2nc(C(=O)c3ccccc3)cn2c1C [Example 16, (6-Ethyl-7-methoxy-5-methylimidazo[1,2-a]pyrimidin-2-yl)phenylmethanone] | 56 nM | 2 mg/kg
15 | COc1nc2nc(C(=O)c3ccccc3)cn2c2c1CCC(C)C2 (stereo not drawn) [Example 17, (5-Methoxy-8-methyl-6,7,8,9-tetrahydroimidazo[1,2-a]quinazolin-2-yl]phenylmethanone] | 135 nM | 10 mg/kg
16 | CSc1nc2nc(C(=O)c3ccccc3)cn2c2c1CCC(C)C2 (stereo not drawn) [Example 18, [8-Methyl-5-(methylthio)-6,7,8,9-tetrahydroimidazo[1,2-a]quinzolin-2-yl]phenylmethanone] | 76 nM | 50 mg/kg
17 | CCCCCCc1c(OC)nc2nc(C(=O)c3ccccc3)cn2c1C [Example 19, (6-n-Hexyl-7-methoxy-5-methylimidazo[1,2-a]pyrimidin-2-yl)phenylmethanone] | 180 nM | 20 mg/kg
18 | C=CCc1c(OC)nc2nc(C(=O)c3ccccc3)cn2c1C [Example 20, (6-Allyl-7-methoxy-5-methylimidazo[1,2-a]pyrimidin-2-yl)phenylmethanone] | 45 nM | 4 mg/kg
19 | CSc1cc(C)n2cc(C(=O)c3ccccc3)nc2n1 [Example 21, [5-Methyl-7-(methylthio)imidazo[1,2-a]pyrimidin-2-yl]phenylmethanone] | 190 nM | 50 mg/kg
20 | CCCc1cc(SC)nc2nc(C(=O)c3ccccc3)cn12 [Example 22, [7-(Methylthio)-5-propylimidazo[1,2-a]pyrimidin-2-yl]phenylmethanone] | 89 nM | 50 mg/kg
21 | COc1nc2nc(C(=O)c3ccccc3)cn2c(C)c1CC1CC1 [Example 23, [6-Cyclopropylmethyl-7-methoxy-5-methylimidazo[1,2-a]pyrimidin-2-yl]phenylmethanone] | 30 nM | 10 mg/kg

Row | SMILES | IC50 (benzodiazepine receptors) | minimal effective dose [1]
22 | COc1nc2nc(C(=O)c3ccccc3)cn2c(C)c1CC1CCCCC1 [Example 24, [6-Cyclohexylmethyl-7-methoxy-5-methylimidazo[1,2-a]pyrimidin-2-yl]phenylmethanone] | 250 nM | 50 mg/kg
23 | CCOc1nc2nc(C(=O)c3ccccc3)cn2c(C)c1CC [Example 25, [7-Ethoxy-6-ethyl-5-methylimidazo[1,2-a]pyrimidin-2-yl]phenylmethanone] | 1900 nM | 50 mg/kg
24 | CCCc1c(C)c(OC)nc2nc(C(=O)c3ccccc3)cn12 [Example 26, [7-Methoxy-6-methyl-5-propylimidazo[1,2-a]pyrimidin-2-yl]phenylmethanone] | 740 nM | 20 mg/kg
25 | CCCc1c(CC)c(OC)nc2nc(C(=O)c3ccccc3)cn12 [Example 27, [6-Ethyl-7-methoxy-5-n-propylimidazo[1,2-a]pyrimidin-2-yl]phenylmethanone] | 470 nM | 50 mg/kg
26 | COc1ccn2cc(C(=O)c3ccccc3)nc2n1 [Example 28, [7-Methoxyimidazo[1,2-a]pyrimidin-2-yl]phenylmethanone] | 8500 nM | 50 mg/kg
27 | CCc1c(C)c(OC)nc2nc(C(=O)c3ccccc3)cn12 [Example 29, [5-Ethyl-7-methoxy-6-methylimidazo[1,2-a]pyrimidin-2-yl]phenylmethanone] | 1000 nM | 20 mg/kg
28 | CCCCc1c(OC)nc2nc(C(=O)c3ccccc3)cn2c1C [Example 30, [6-n-Butyl-7-methoxy-5-methylimidazo[1,2-]pyrimidin-2-yl]phenylmethanone] | 42 nM | 2 mg/kg
29 | CCc1c(OC)nc2nc(C(=O)c3ccccc3)cn2c1CC [Example 31, [5,6-Diethyl-7-methoxyimidazo[1,2-a]pyrimidin-2-yl]phenylmethanone] | 107 nM | 2 mg/kg
30 | CCCc1c(OC)nc2nc(C(=O)c3ccccc3)cn2c1C [Example 32, [7-Methoxy-5-methyl-6-n-propylimidazo[1,2-a]pyrimidin-2-yl]phenylmethanone] | 85 nM | 5 mg/kg
31 | CCCc1c(OC)nc2nc(C(=O)c3ccccc3)cn2c1CCC [Example 33, [7-Methoxy-5,6-di-n-propylimidazo[1,2-a]pyrimidin-2-yl]phenylmethanone] | 1250 nM | 50 mg/kg
32 | CCCCc1c(OC)nc2nc(C(=O)c3ccccc3)cn2c1CCC [Example 34, [6-n-Butyl-7-methoxy-5-n-propylimidazo[1,2-a]pyrimidin-2-yl]phenylmethanone] | 710 nM | 50 mg/kg
33 | CCCc1c(OC)nc2nc(C(=O)c3ccccc3)cn2c1CC [Example 35, [5-Ethyl-7-methoxy-6-n-propylimidazo[1,2-a]pyrimidin-2-yl]phenylmethanone] | 34 nM | 10 mg/kg
34 | CCCCc1c(OC)nc2nc(C(=O)c3ccccc3)cn2c1CC [Example 36, [6-n-Butyl-5-ethyl-7-methoxy-imidazo[1,2-a]pyrimidin-2-yl]phenylmethanone] | 34 nM | 10 mg/kg
35 | CCc1c(SC)nc2nc(C(=O)c3ccccc3)cn2c1CC [Example 52, [5,6-Diethyl-7-(methylthio)imidazo[1,2-a]pyrimidin-2-yl]phenylmethanone] | 12 nM | –
36 | CCCc1c(SC)nc2nc(C(=O)c3ccccc3)cn2c1CC [Example 53, [5-Ethyl-7-(methylthio)-6-n-propylimidazo[1,2-a]pyrimidin-2-yl]phenylmethanone] | 47 nM | –
37 | CCc1c(OC)nc2nc(C(=O)c3cccs3)cn2c1C [Example 60, 6-ethyl 7-methoxy 5-methylimidazo/1,2-a/pyrimidin-2-yl(2-thienyl)methanone] | – | 50 mg/kg
38 | CCc1c(OC)nc2nc(C(=O)c3ccccn3)cn2c1C [Example 61, (6-ethyl 7-methoxy 5-methylimidazo/1,2-a/pyrimidin-2-yl)(2-pyridinyl)methanone] | – | 50 mg/kg
39 | CCc1c(OC)nc2nc(C(=O)c3ccc(F)cc3)cn2c1C [Example 62, (6-ethyl 7-methoxy 5-methylimidazo/1,2-a/pyrimidin-2-yl)(4-fluorophenyl)methanone] | – | 10 mg/kg
40 | CCc1c(OC)nc2nc(C(=O)c3cccc(C(F)(F)F)c3)cn2c1C [Example 63, (6-ethyl 7-methoxy 5-methylimidazo/1,2-a/pyrimidin-2-yl)/(3-trifluoromethyl)phenyl/methanone] | – | 50 mg/kg
41 | CCc1c(OC)nc2nc(C(C)=O)cn2c1C [Example 64, 1-(6-ethyl 7-methoxy 5-methylimidazo/1,2-a/pyrimidin-2-yl)ethanone] | – | 50 mg/kg
